# Results taken from patent publication US11453642B2, “Oxygenated amino- or ammonium-containing sulfonic acid, phosphonic acid and carboxylic acid derivatives and their medical use” (GRI BIO, INC., priority 2011, dated 2022).
# Values joined by “and” are separate entries in the source; they are usually repeats but may differ in a detail not shown here. Equal entries are not always repeated. Where two headings read alike, the source gives them in different places. Marks after values point to notes of the source that are not given here.
# How the values were obtained:
# DTH response in mice = format: in vivo; settings: for Inhibition of mouse ear swelling: DTH, 24 h after challenge
# Protocol: The anti-inflammatory and anti-allergic effects of compounds 1a and 1c were assessed in a mouse model of skin delayed-type hypersensitivity (DTH) reactions and compared to a vehicle control and to the reference drug dexamethasone. DTH reactions are antigen-specific cell-mediated immune responses, driven primarily by T helper type 1 (Th1) cells, similar to the tuberculin immunization response. The immune reaction induced by an ovalbumin challenge to animals previously sensitized with ovalbumin in Complete Freund's Adjuvant, is characterized by swelling (edema) at the site of challenge, e.g. the mouse ear. Dexamethasone, an anti-inflammatory steroid, reduces cell-mediated immune responses and was employed to validate the responsiveness of the assay to pharmacological treatment.
# Female BALB/cJW mice were bred at the University of Lodz, Lodz, Poland and housed in groups of 8 in makrolon cages with a 12 h light-dark cycle. Mice were given free access to food (Agropol S.j., Motycz, Poland) and water.
# Sensitization: The protein antigen, ovalbumin, was reconstituted in PBS at 4 mg/ml. An ovalbumin-CFA emulsion was prepared by mixing the protein solution with the CFA suspension at a ratio of 1:1, using two Luer-lock syringes. The emulsion was tested by putting a drop of emulsion onto PBS; if the emulsion remained as a tight droplet on the PBS, the emulsion was deemed ready. Mice were sensitized by subcutaneously injecting 25 μL of emulsion into each side of the tail (100 μg ovalbumin per mouse).
# Challenge: On the sixth day after sensitization, DTH was elicited by challenging animals subcutaneously (gauge 30 needle, B. Braun Melsungen, Melsungen, Germany) in the left ears with 10 μL of a 1% suspension of heat-aggregated ovalbumin (HOVA) (100 μg ovalbumin per mouse). The right ears were administered subcutaneously with PBS and served to determine the individual differences in ear thicknesses. HOVA was prepared by heating a 5% solution of ovalbumin in saline for 1 h at 80° C. with occasional swirling. After cooling to room temperature and centrifugation (400 g. 10 min at 4° C.), the pellet was washed twice with saline, resuspended at 2% in PBS and aliquots stored at −30° C. Before injection, HOVA was diluted with an equal volume of PBS and sonicated. Ear thickness was measured with a precise spring-loaded caliper (Art. No. 7309, Mitutoyo, Kawasaki, Japan) before challenge, and 24 h after challenge.
# Sensitization, challenge and ear thickness measurement were performed under anesthesia (ketamine 80 mg/kg plus xylazine 8 mg/kg, intraperitoneally).
# The anti-inflammatory effects of compounds 1a and 1c were compared to a vehicle control (0.5% methyl cellulose solution) and to the reference drug, dexamethasone. Test compounds were given at 25 or 100 mg/kg orally by gavage (Art. No. 432093, Harvard Apparatus GmbH, March-Hugstetten, Germany) 16 h and 3 h before sensitization and then twice daily with the final dose given 3 h prior to ear challenge (a total of 14 administrations). Dexamethasone was given at 0.1 or 1 mg/kg orally by gavage 3 h before sensitization and once daily with the final dose given 3 h prior to antigen challenge (a total of 7 administrations). All administrations were given in a volume of 10 ml/kg.
# To account for individual variability, the increase in right ear thickness, before and 24 h after administration of PBS, was subtracted from the HOVA-induced increase in left ear thickness. The increase in ear thickness was calculated by the difference between ear thickness before and 24 h after antigen challenge. Percent inhibition of ear swelling was calculated according to the following formula: % inhibition=100×(IETvehicle−IETcompound)/IETvehicle where IET=(ET24 hrs pc−ETpredose)HOVA-treated ears−(ET24 hrs pc−ETpredose)PBS-treated ears • (IET, increase ear thickness; ET, ear thickness; pc, post challenge)
# Mean and standard deviation (SD) were calculated from individual ear edema values. […]
# [1] = test system: allergic contact dermatitis response in mice; assay: Allergic contact dermatitis (TDI) model in mice, mouse ear swelling test; format: in vivo
# Protocol: The anti-inflammatory and anti-allergic effects of compounds 1a and 1c were assessed in a mouse model of allergic contact dermatitis, a response driven primarily by T helper type 2 (Th2) cells. […] In this model, an allergic dermatitis response is obtained by sensitizing mice to TDI and subsequently challenging them with antigen by topical administration onto the ears. A quantitative assessment of anti-inflammatory and anti-allergic effects of topically or orally administered test compounds is possible by measuring the resulting ear swelling. The advantages of the allergic contact dermatitis model (Zöllner et al., Bioessays 26:693-6 (2004)) are reproducibility and reliability (>90% of BALB/c mice respond to sensitization), a short induction protocol, quantitative assessment by measuring ear thickness, atopic dermatitis-like skin lesions can be induced, and clinically relevant pharmaceuticals, such as corticosteroids, calcineurin-inhibitors and PDE4-inhibitors, are effective in this model.
# Female BALB/c-mice were obtained from Charles River (Sulzfeld, Germany) at age 8 weeks. All animals were housed in groups of eight per cage at 22° C. with a 12 h light/dark-cycle, Water and a standard diet (Altromin, Lage/Lippe, Germany) were available ad libitum. All animals were acclimatized for one week before experimental procedures were commenced.
# Experimental procedures for BALB/c mice housing, TDI sensitization and challenge, and measurement of ear thickness were performed as previously described (Baumer et al., J Pharm Pharmacol, 55:1107-1114 (2003)) with the following modifications. For active sensitization, 100 μL of 5% (w/v) TDI was administered to the shaved and stripped abdominal epidermis on day one, and for the next three consecutive days, 50 μL of 5% (My) TDI was applied. The allergic reaction was boosted 21 days later by application of 50 μL of 0.5% (w/v) TDI. For the examination of test compound effects, the left ears were used for the TDI challenge (20 μL of 0.5% in acetone) and ear thickness measured 3 h before and 24 h after challenge.
# Group size was n=7 mice unless otherwise stated. Test compounds were freshly prepared before administration.
# Administration time: to determine optimal time for administration treatment groups were treated orally by gavage with 100 mg/kg of compound 1a or 1c (suspended in 0.5% tylose, 10 mL/kg) 1, 4 or 16 h before topical TDI challenge. One group was treated with 100 mg/kg miltefosine orally, 16 h before challenge (based on available data for optimal administration time for miltefosine) and vehicle treated mice received tylose (10 mL/kg) orally, 4 h before challenge.
# Dose-response: two groups of mice were treated orally with compound 1a at 25 mg/kg or 100 mg/kg suspended in 0.5% tylose, 4 h before topical TDI challenge. Vehicle treated mice received 0.5% tylose orally 4 h before challenge. As a positive control, dexamethasone was administered in saline solution at 1 mg/kg or 3 mg/kg, 2 h and 30 min before challenge and 1 h after challenge. The dose and dosing scheme for dexamethasone was based on previous experience showing a maximal effect in this model.
# Compound 1a was administered to two groups of mice topically in 20 μl of a 2% or 6% solution in propyleneglycol. The suspension was heated to 60° C. and mixed using a thermomixer (Eppendorf) until it became clear. The solution was applied, 2 h before topical TDI challenge by administration of 10 μl onto each of the inner and outer surfaces of the left ears. A vehicle group (17=5) was treated with propyleneglycol. As a positive control, diflorasone, diacetate was administered at 0.01% (low dose) and 0.05% (high dose) in 20 μl acetone, 2 h before challenge. A basal control group was left untreated.
# Mean and standard error of the mean (SEM) were calculated from individual ear edema values. […]
# [2] = test system: collagen type II-induced arthritis (CIA); settings: mouse, in vivo
# RBL-2H3 cells [3] = assay: Inhibition of mast cell degranulation (β-hexosaminidase release); format: cell-based; settings: Rattus norvegicus, IgE-sensitized RBL-2H3 cells, 1 h with compound, antigen (DNP-HSA) 15 min
# Excerpt: Mast cells are key effector cells involved in allergic and inflammatory diseases, and the Rat Basophilic Leukemia clone 2H3 (RBL-2H3) cell line is a commonly used model of allergen dependent immune modulator release (degranulation) in mast cells. On their surface, they express the high affinity receptor for IgE (FcεRI). Upon binding of antigen-specific IgE to the receptor, cells become sensitized to the IgE specific antigen (allergen). When IgE-sensitized cells then encounter multivalent antigen, the antigen clusters IgE-FcεRI complexes and initiates a signal transduction cascade that leads to degranulation, that is, the release of inflammatory mediators, such as cytokines, eicosanoids, histamine and enzymes. The assay can be used as a screening method to identify immune-modulating compounds, in particular compounds useful in the medical management of allergic and inflammatory diseases and asthma, β-hexosaminidase was previously shown to be released with the same kinetics as histamine (Schwartz et al., J Immunology; 123:1445-1450 (1979)), thus offering a simple means to monitor degranulation. […]
# MUG substrate solution, 100 μl, were added to supernatant and lysate samples and plates were incubated 30 min at 37° C. […] Fluorescence was measured at 365 nm excitation and 440 nm emission wavelengths. […]
# RBL-2H3 cells [4] = assay: Maximum tolerated concentration (cytotoxicity by lactate dehydrogenase release); format: cell-based, Rat
# Excerpt: The safety index (SI) of a test compound is the ratio between the maximum tolerated concentration and the IC50 and is used as a measure of the relative safety of the test compound.
smiles,measurement,setting,value
"C[C@@H]1C[C@H]2[C@@H]3CCC4=CC(=O)C=C[C@]4(C)[C@@]3(F)[C@@H](O)C[C@]2(C)[C@@]1(O)C(=O)CO [Dexamethasone, reference compound]",Inhibition of mouse ear swelling,DTH response in mice; 0.1 mg/kg orally once daily (7 administrations),14%
same,Inhibition of mouse ear swelling,DTH response in mice; 1.0 mg/kg orally once daily (7 administrations),53%
same,loss in body weight,"DTH response in mice; mouse, in vivo, po, 1 mg/kg",9%
same,Inhibition of mouse ear swelling,"[1]; dose-response study, 1 mg/kg, 2 h and 30 min before and 1 h after challenge",78.6*** %
same,Inhibition of mouse ear swelling,"[1]; dose-response study, 1 mg/kg, 2 h and 30 min before and 1 h after challenge, listed as dexamethasone",78%
same,Inhibition of mouse ear swelling,"[1]; dose-response study, 3 mg/kg, 2 h and 30 min before and 1 h after challenge",87.1*** %
same,Inhibition of mouse ear swelling,"[1]; dose-response study, 3 mg/kg, 2 h and 30 min before and 1 h after challenge, listed as dexamethasone",87%
same,spleen and thymus weights,[2],markedly reduced
"CCCCCCCCCCCCCCCCOP(=O)([O-])OCC[N+](C)(C)C [Miltefosine, reference compound]",IC50,RBL-2H3 cells [3],4.2 µM
same,MTC (maximum tolerated concentration),"RBL-2H3 cells [4]; highest concentration not causing cytotoxicity (LDH release), RBL-2H3 cells",25 µM
same,SI (safety index),RBL-2H3 cells [4]; ratio between MTC and IC50,6.0
same,inhibitory efficacy relative to that of 1a at its optimal administration time of 4 h,"[1]; 100 mg/kg oral, 16 h before challenge vs 1a 4 h",64%
same,inhibitory efficacy relative to that of compound 1c at its optimal administration time of 4 h,"[1]; 100 mg/kg oral, 16 h before challenge vs 1c 4 h",69%
same,Inhibition of mouse ear swelling,"[1]; administration time study, 100 mg/kg oral, 16 h before TDI challenge",47% and 47.3^§ %
